Data reported in US9469854B2, “Pharmaceutical composition for treating liver diseases” (Academia Sinica, priority 2014, dated 2016).

Legend:
Type in all cases: cell-based, human
[1] = tested on: intracellular malonyl-CoA; assay: Measurement of intracellular malonyl-CoA concentration in HepG2 cells; conditions: HepG2, 72-h mimic transfection
Method: After transfection with 50 nM of miR-21-3p mimic or the negative-control mimic for 72 h, the PHH cells and HepG2 cells were trypsinized. The intracellular malonyl-CoA concentration was measured using the malonyl-CoA ELISA Kit (MyBioSource) according to the manufacturer's instructions.

[2] = tested on: HepG2 cells; assay: Trypan blue dye exclusion assay (viable cell number); conditions: HepG2, 50 nM mimic transfection 48 h vs NC mimic
Method: FIG. 6A represents the number of viable HepG2 cells transfected with 50 nM of miR-21-3p mimic or negative-control (NC) mimic for 48 h, which is quantified using trypan blue dye exclusion assay. The data are represented as the mean±standard deviation for 3 independent experiments. The asterisk mark “*” indicates a significant difference with P<0.05.
(§1) The HepG2 cells were transfected at a density of 5×10^4 cells per well in a 24-well culture plates with either 50 nM of hsa-miR-21-3p (miR-21-3p mimic) or negative-control mimic (NC mimic), or with either 100 nM of hsa-miR-21-3p inhibitor (miR-21-3p inhibitor) or negative-control inhibitor (NC inhibitor) by using the DharmaFECT 4 transfection reagent (Thermo Scientific Dharmacon) according to the manufacturer's instructions. Cells were incubated for 24 h or 48 h with a microRNA mimic or inhibitor prior to RNA purification for gene expression analysis, and were incubated for 72 h for protein expression analysis.

[3] = tested on: exon 23 of ACACB; assay: Reporter examination of miR-21-3p and ACACB (technology similar to Example 6)
Method: (§2) The HEK-293T and HepG2 cells were seeded at a density of 5×10^4 cells per well in a 24-well culture plate the day before transfection. The HEK-293T and HepG2 cells were tri-transfected with (1) any one of the above-mentioned pMIR-REPORT-3′ UTR construction (300 ng), (2) the control Renilla luciferase reporter plasmid pRL-TK from Promega (10 ng), and (3) 50 nM of hsa-miR-21-3p mimic or negative-control mimic by using the Lipofectamine 2000 transfection reagent (Invitrogen) according to the manufacturer's instructions. Luciferase assays were performed after transfection for 48 h by using the Dual Luciferase reporter assay kit (Promega) and the Paradigm detection platform (Beckman) according to the manufacturer's protocol. The firefly luciferase activity was normalized relative to the Renilla luciferase activity.

[4] = tested on: 3′ UTR of ACACA; assay: Reporter examination of miR-21-3p and ACACA 3′ UTR (technology similar to Example 6); conditions: data not shown
Method: as §2

[5] = tested on: MAT2B; assay: Western blot protein expression in HepG2 cells; conditions: HepG2, mimic transfection 72 h
Method: (§3) The human HepG2 cells and HEK 293T cells used in the following examples were originally obtained from the American Tissue Culture Collection (ATCC, USA). The human HCC HepG2 cell line was cultured in Minimum Essential Medium Eagle (Sigma) supplemented with 10% fetal bovine serum (FBS) (Invitrogen), 2.2 g/L of sodium bicarbonate (Sigma), 0.1 mM of non-essential amino acids (Caisson), 1 mM of sodium pyruvate (Invitrogen), and 10 of ml/L penicillin-streptomycin-amphotericin solution (Biological Industries). Human HEK-293T cells were maintained in high-glucose Dulbecco's modified eagle medium (Invitrogen) supplemented with 10% FBS and 3.7 g/L of sodium bicarbonate (Sigma). Both cell lines were cultured at 37° C. and 5% CO2.
as §1
(§4) Total cell lysates were prepared using a lysis buffer (7 M of urea, 4% CHAPS, 2 M of thiourea, 40 mM of Tris, 65 mM of dithioerythritol). Protein samples were separated using 12.5% SDS-PAGE and then transferred to PVDF membranes. The following primary antibodies were used: rabbit polyclone anti-MAT1A (1:800, GeneTex), anti-MAT2A (1:1000, GeneTex), anti-MAT2B (1:1000, GeneTex), anti-ACACB (1:1000, Sigma), anti-DGAT2 (1:1000, GeneTex) and anti-GAPDH (1:3000, GeneTex) and mouse monoclone anti-ACACA (1:1000, Millipore). The goat polyclonal anti-rabbit or anti-mouse IgG antibody conjugated with HRP (1:5000, abcam) was used as the secondary antibody. The bands were imaged using the LAS-4000 mini luminescent image analyzer (Fujifilm). The quantification of western blot analysis was achieved by using Image J software. The protein expression levels were normalized to the GAPDH levels.

[6] = tested on: ACACA; assay: Western blot protein expression in HepG2 cells; conditions: HepG2, mimic transfection, 72 h
Method: as §3, §1, §4

[7] = tested on: ACACA; assay: qRT-PCR mRNA expression in HepG2 cells; conditions: HepG2, mimic transfection, 24 h
Method: The human HepG2 cells and HEK 293T cells used in the following examples were originally obtained from the American Tissue Culture Collection (ATCC, USA). The human HCC HepG2 cell line was cultured in Minimum Essential Medium Eagle (Sigma) supplemented with 10% fetal bovine serum (FBS) (Invitrogen), 2.2 g/L of sodium bicarbonate (Sigma), 0.1 mM of non-essential amino acids (Caisson), 1 mM of sodium pyruvate (Invitrogen), and 10 of ml/L penicillin-streptomycin-amphotericin solution (Biological Industries). Human HEK-293T cells were maintained in high-glucose Dulbecco's modified eagle medium (Invitrogen) supplemented with 10% FBS and 3.7 g/L of sodium bicarbonate (Sigma). Both cell lines were cultured at 37° C. and 5% CO2. A 50 mM stock solution of berberine chloride (Sigma-Aldrich) was prepared in dimethyl sulfoxide (DMSO). Cells were treated with 40 μM of berberine chloride or 0.08% DMSO as the control. For induction of lipid droplets formation in cultured cells, 200 μM of oleic acid (Sigma-Aldrich) was added into the culture medium for 24 h. Total RNA was extracted using a TRIZOL reagent (Invitrogen) according to the manufacturer's protocol. The total RNA quantity was measured using a NanoDrop ND-1000 spectrophotometer (Nanodrop Technologies). The total RNA quality and integrity were assayed using an Agilent 2100 bioanalyzer with an RNA 6000 nano kit (Agilent Technologies). Total RNAs (1 μg) were reverse-transcribed into cDNA by using M-MuLV Reverse Transcriptase (Thermo) and Oligo(dT)12-18 primers (Invitrogen) according to the manufacturer's protocol. The cDNA were then used for a real-time PCR with a LightCycler 480 SYBR Green I Master (Roche) by using primers shown in the following Table 1. The gene expression levels were normalized to GAPDH levels. […] Cells were incubated for 24 h or 48 h with a microRNA mimic or inhibitor prior to RNA purification for gene expression analysis, and were incubated for 72 h for protein expression analysis.

[8] = tested on: 3′ UTR sequence of DGAT2; assay: Reporter examination of miR-21-3p and DGAT2 3′ UTR (technology similar to Example 6)
Method: as §2

## hsa-miR-21-3p (CAACACCAGUCGAUGGGCUGU; listed as RNA, chemistry not given here) [miR-21-3p mimic]
[1]
  intracellular malonyl-CoA concentration decrease: 1.6 fold
[2]
  viable cell numbers: reduced the viable cell numbers
[3]
  suppression of ACACB expression by binding exon 23: 1.4 fold
[4]
  suppression of ACACA expression via 3′ UTR: suppressed the expression of ACACA, but not though its 3′ UTR sequence
[5]
  MAT2B protein expression decrease: 3.4 fold
[6]
  decrease in protein expression of ACACA: 2.3 fold
[7]
  decrease in mRNA expression of ACACA: 44%
[8]
  suppression of DGAT2 expression by pairing with 3′ UTR: 1.4 fold
